Values quoted from earlier work, collected in US20240123021A1, “PHARMACEUTICAL COMPOSITIONS” (EXTROVIS AG, priority 2021, published 2024).
Square brackets hold non-standard residues; d marks the D form. Peptide text beside a SMILES is read from it. dPhe(4-Cl) = N[C@H](Cc1ccc(Cl)cc1)C(=O)O; d2Nal = N[C@H](Cc1ccc2ccccc2c1)C(=O)O; dCit = NC(=O)NCCC[C@@H](N)C(=O)O; d3Pal = N[C@H](Cc1cccnc1)C(=O)O

Conditions: according to Cetrotide EPAR scientific discussion

aggregation and gelling in solution (in solution)	Molecule	stability (thermal, aqueous solution)
–	CC(=O)N[C@H](Cc1ccc2ccccc2c1)C(=O)N[C@H](Cc1ccc(Cl)cc1)C(=O)N[C@H](Cc1cccnc1)C(=O)N[C@@H](CO)C(=O)N[C@@H](Cc1ccc(O)cc1)C(=O)N[C@H](CCCNC(N)=O)C(=O)N[C@@H](CC(C)C)C(=O)N[C@@H](CCCNC(=N)N)C(=O)N1CCC[C@H]1C(=O)N[C@H](C)C(N)=O [Cetrorelix acetate] (Ac-[d2Nal][dPhe(4-Cl)][d3Pal]SY[dCit]LRP[dA]-NH2)	thermally labile and unstable in aqueous solution
tends to aggregate and gel	Acetyl-D-3-(2′-naphtyl)-alanine-D-4-chlorophenylalanine-D-3-(3′-pyridyl)alanine-L-serine-L-tyrosine-D-citruline-L-leucine-L-arginine-L-proline-D-alanine-amide [Cetrorelix]	–
